Data: patent US12226424B2, “Target protein degradation compounds, their anti-tumor use, their intermediates and use of intermediates” (ShanghaiTech University, priority 2018, dated 2025)

Columns and labels:
[1] = biological target: BCR-ABL (Homo sapiens, UniProt P00519); assay: Western-blot half-degradation concentration (DC50) / degradation of BCR-ABL in K562 cells; settings: read-out: DC50 (nM)/K562 cell line, BCR-ABL protein degradation, 24 hours, Western-blot
[2] = tested on: K562 cells (BCR-ABL positive); assay: Half inhibitory concentration (IC50) on tumor cells, CCK-8, K562; settings: Homo sapiens, K562, 48 h, read-out: IC50 (nM)/K562 cell line
Experimental: Determination of Half Inhibitory Concentration (IC50) of PROTAD Compounds on Tumor Cells
K562 cells were seeded in 100 μL of RPMI1640 complete medium at a density of 20,000 cells/well. 100 μL of the inoculated cells were treated with 100 μL diluted PROTAD compound of the present disclosure to be tested at 9 successively decreasing concentrations (starting at the highest concentration of 10 μM; 3-fold serial dilutions). After the cells were treated with the tested drugs for 48 hours, the cell viability determination was performed in accordance with CCK-8 reagent operating instructions. The negative control was DMSO, and positive control was a commercial inhibitor. After CCK-8 treatment for 2 h, the value of O.D.450 was measured using a microplate reader.

[3] = tested on: SR cells; assay: Half inhibitory concentration (IC50) on ALK-positive SR cell proliferation (CCK-8); assay type: cell-based; settings: Homo sapiens; SR cells, 72 h drug treatment, CCK-8; read-out: IC50 (nM)/ SR cell line
Procedure, shortened: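 SR cells seeded at 10,000 cells/well in RPMI1640 and treated with PROTAD compounds at 10 concentrations (top 10 μM, 5-fold dilutions) for 72 h at 37° C, 5% CO2. Viability read by CCK-8 (2 h) at OD450; DMSO as negative control.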

[4] = biological target: ALK protein (Homo sapiens, UniProt Q9UM73); assay: Western-blot half degradation concentration (DC50) of ALK protein in SR cells; assay type: cell-based; settings: 24 h drug treatment; for DC50: read-out: DC50 (nM)/ SR cell line
Experimental: ALK-positive SR cells (human large cell immunoblastic lymphoma) were purchased from the American Type Culture Collection (ATCC); H3122 cells (human non-small cell lung cancer) were from the Shanghai University of Science and Technology Lin Haifan's research group.
The cells used in this present disclosure were cultured in a 37° C. incubator containing 5% CO2.
DC50 (drug concentration corresponding to protein degradation to 50%) calculation: according to the gray value of the corresponding Western blotting band after drug treatment, fitting the relationship curve between drug concentration and gray value to calculate the drug concentration range corresponding to half of the gray value.

[5] = tested on: MM1S cells; assay: Half inhibitory concentration (IC50) on BET-expressing tumor cells, CCK-8, MM1S; assay type: cell-based; settings: Homo sapiens, MM1.S, 48/72 h, read-out: IC50 (nM)/MM1S cell line
Experimental: BET-expressing cells MV-4-11 cells (human B granulocytic leukemia cells), MDA-MB-231 cells (human breast cancer cells), MDA-MB-468 cells (human breast cancer cells), MDA-MB-453 Cells (human breast cancer cells), MM1S cells (myeloma (immunoglobulin A lambda), B lymphoblasts) and SR cells (human large cell immunoblast lymphoma) were purchased from the American Type Culture Collection (ATCC).
The cells used in this present disclosure were cultured in a 37° C. incubator containing 5% CO2. The complete cell culture medium was RPMI 1640/IMDM/DMEM medium with 10% fetal bovine serum, and the final concentrations of penicillin and streptomycin were 100 U/mL, respectively. All cells were tested negative for mycoplasma with mycoplasma detection kit before the experiment.
Determination of the Half Inhibitory Concentration (IC50) of PROTAD Compounds on Tumor Cells
MV-411 cells, MM1S cells and SR cells were seeded in 100 μL IMDM/RPMI1640/DMEM complete medium at a density of 15000/10000 cells/well; MDA-MB-231 cells, MDA-MB-468 cells, and MDA-MB453 cells were seeded in 100 μL IMDM/RPMI1640/DMEM complete medium at a density of 3000/5000 cells/well, respectively. 100 μL of the inoculated cells were treated with 0.5 μL diluted PROTAD compounds of the present disclosure to be tested at 10 successively decreasing concentrations (starting at the highest concentration of 10 μM; 5-fold serial dilutions). After the cells were treated with the tested drugs 48/72 h, the cell viability was determined according to the CCK-8 reagent manual. The negative control was DMSO, and the positive control was a commercial inhibitor. After CCK-8 treatment for 2 h, the value of O.D.450 was measured using a microplate reader.

[6] = tested on: MV-4-11 cells; assay: Half inhibitory concentration (IC50) on BET-expressing tumor cells, CCK-8, MV-4-11; settings: Homo sapiens, MV4-11, read-out: IC50 (nM)/MV-4-11 cell line, MV-4-11 cells, 48/72 h, CCK-8

ALK protein, sequence (Q9UM73 with tags, fused parts or gaps): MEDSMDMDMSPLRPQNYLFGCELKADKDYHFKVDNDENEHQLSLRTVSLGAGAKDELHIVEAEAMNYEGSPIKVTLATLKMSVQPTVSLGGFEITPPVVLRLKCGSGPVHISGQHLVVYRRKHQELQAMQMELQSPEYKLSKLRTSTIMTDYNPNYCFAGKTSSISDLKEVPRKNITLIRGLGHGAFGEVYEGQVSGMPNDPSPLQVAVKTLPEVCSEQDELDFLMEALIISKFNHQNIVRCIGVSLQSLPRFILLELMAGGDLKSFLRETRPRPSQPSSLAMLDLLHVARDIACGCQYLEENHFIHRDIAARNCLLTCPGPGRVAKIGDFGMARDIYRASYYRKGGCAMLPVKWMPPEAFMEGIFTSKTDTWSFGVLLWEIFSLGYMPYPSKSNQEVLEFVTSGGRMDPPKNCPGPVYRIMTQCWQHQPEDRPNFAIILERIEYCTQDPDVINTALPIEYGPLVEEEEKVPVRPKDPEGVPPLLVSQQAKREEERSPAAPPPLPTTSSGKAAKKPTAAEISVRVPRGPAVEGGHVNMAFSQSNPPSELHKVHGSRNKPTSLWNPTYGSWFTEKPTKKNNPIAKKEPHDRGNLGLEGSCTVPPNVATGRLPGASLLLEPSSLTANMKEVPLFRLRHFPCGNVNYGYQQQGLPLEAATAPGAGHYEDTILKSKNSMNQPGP
BCR-ABL, sequence (P00519 with tags, fused parts or gaps): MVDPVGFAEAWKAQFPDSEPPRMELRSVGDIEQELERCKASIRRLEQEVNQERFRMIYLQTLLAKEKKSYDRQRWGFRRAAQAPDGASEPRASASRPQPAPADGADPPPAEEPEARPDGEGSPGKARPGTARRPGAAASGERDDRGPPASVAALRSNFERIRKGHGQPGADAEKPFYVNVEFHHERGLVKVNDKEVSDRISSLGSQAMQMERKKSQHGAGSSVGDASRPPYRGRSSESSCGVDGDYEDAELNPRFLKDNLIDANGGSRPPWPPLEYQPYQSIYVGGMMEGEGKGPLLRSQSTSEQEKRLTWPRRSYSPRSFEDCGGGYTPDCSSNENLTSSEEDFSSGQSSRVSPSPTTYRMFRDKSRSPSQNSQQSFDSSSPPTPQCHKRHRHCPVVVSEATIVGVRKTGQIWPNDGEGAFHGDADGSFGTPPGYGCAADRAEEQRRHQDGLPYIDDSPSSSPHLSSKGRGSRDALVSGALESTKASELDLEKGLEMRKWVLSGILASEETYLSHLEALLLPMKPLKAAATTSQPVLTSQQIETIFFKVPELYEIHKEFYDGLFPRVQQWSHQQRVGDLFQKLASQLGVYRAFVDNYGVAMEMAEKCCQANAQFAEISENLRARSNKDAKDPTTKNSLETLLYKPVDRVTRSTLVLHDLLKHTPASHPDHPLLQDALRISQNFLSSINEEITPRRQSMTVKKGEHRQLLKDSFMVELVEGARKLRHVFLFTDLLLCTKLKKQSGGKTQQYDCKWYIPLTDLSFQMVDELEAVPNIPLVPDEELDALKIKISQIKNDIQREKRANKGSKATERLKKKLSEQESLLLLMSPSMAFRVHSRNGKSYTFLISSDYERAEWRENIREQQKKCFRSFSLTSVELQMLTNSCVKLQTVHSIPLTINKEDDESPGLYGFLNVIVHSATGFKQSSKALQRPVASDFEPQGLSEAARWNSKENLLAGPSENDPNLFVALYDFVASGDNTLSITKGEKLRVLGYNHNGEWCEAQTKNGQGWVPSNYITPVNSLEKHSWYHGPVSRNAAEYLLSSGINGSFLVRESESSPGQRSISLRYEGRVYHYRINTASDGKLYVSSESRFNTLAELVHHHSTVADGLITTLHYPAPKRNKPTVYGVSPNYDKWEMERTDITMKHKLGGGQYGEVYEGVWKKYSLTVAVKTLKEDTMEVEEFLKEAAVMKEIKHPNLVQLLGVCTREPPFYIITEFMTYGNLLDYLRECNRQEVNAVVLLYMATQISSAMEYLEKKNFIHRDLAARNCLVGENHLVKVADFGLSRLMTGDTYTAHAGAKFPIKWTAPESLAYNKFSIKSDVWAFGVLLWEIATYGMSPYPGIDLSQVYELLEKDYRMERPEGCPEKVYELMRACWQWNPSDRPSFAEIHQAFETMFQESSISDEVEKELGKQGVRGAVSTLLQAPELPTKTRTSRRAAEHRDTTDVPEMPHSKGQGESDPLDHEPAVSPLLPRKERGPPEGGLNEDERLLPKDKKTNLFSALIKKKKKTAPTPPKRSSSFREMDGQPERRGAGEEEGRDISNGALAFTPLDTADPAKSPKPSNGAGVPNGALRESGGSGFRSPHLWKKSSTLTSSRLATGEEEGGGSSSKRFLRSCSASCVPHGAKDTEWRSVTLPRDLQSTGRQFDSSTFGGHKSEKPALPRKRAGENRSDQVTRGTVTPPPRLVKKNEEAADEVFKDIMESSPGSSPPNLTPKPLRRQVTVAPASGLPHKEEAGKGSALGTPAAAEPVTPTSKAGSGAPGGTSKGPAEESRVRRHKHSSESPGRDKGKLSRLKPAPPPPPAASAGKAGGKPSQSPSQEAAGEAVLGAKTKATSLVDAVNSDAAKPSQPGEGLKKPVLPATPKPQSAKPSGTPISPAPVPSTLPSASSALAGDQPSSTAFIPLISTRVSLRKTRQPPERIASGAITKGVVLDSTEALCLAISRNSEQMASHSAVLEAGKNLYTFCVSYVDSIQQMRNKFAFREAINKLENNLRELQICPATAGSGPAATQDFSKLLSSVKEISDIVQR

| SMILES | DC50 [1] [nM] | IC50 [2] [nM] | IC50 [3] [nM] | also measured |
| --- | --- | --- | --- | --- |
| Cc1nc(Nc2ncc(C(=O)Nc3c(C)cccc3Cl)s2)cc(N2CCN(C(=O)CCSc3cccc4c3C(=O)N(C3CCC(=O)NC3=O)C4=O)CC2)n1 (stereo not drawn) [SIAIS151152, N-(2-chloro-6-methylphenyl)-2-((6-(4-(3-((2-(2,6-dioxopiperidin-3-yl)-1,3-dioxoisoindolin-4-yl)thio)propanoyl)piperazin-1-yl)-2-methylpyrimidin-4-yl)amino)thiazole-5-carboxamide] | < 1 | 11.1 |  |  |
| COc1cc(N2CCC(N3CCN(CCCCCCSc4cccc5c4CN(C4CCC(=O)NC4=O)C5=O)CC3)CC2)ccc1Nc1ncc(Cl)c(Nc2ccccc2P(C)(C)=O)n1 (stereo not drawn) [SIAIS219098, 3-(4-((6-(4-(1-(4-((5-chloro-4-((2-(dimethylphosphoryl)phenyl)amino)pyrimidin-2-yl)amino)-3-methoxyphenyl)piperidin-4-yl)piperazin-1-yl)hexyl)thio)-1-oxoisoindolin-2-yl)piperidine-2,6-dione] |  |  | 0.7 ± 0.2 | DC50 [4]: 0.1 to 1 nM |
| COc1cc(N2CCC(N3CCN(C(=O)CSc4cccc5c4CN(C4CCC(=O)NC4=O)C5=O)CC3)CC2)ccc1Nc1ncc(Cl)c(Nc2ccccc2P(C)(C)=O)n1 (stereo not drawn) [SIAIS219067, 3-(4-((2-(4-(1-(4-((5-chloro-4-((2-(dimethylphosphoryl)phenyl)amino)pyrimidin-2-yl)amino)-3-methoxyphenyl)piperidin-4-yl)piperazin-1-yl)-2-oxoethyl)thio)-1-oxoisoindolin-2-yl)piperidine-2,6-dione] |  |  | 2.4 ± 1.4 | DC50 [4]: 0.1 to 10 nM |
| Cc1sc2c(c1C)C(c1ccc(Cl)cc1)=N[C@@H](CC(=O)NCCOCCOCCSc1cccc3c1C(=O)N(C1CCC(=O)NC1=O)C3=O)c1nnc(C)n1-2 (stereo partly drawn) [SIAIS213070, 2-((S)-4-(4-chlorophenyl)-2,3,9-trimethyl-6H-thieno[3,2-f][1,2,4]triazolo[4,3-a][1,4]diazepin-6-yl)-N-(2-(2-(2-((2-(2,6-dioxopiperidin-3-yl)-1,3-dioxoisoindolin-4-yl)thio)ethoxy)ethoxy)ethyl)acetamide] |  |  |  | IC50 [5]: 12.8 nM; IC50 [6]: 2 ± 0.4 nM |
| COc1cc(N2CCC(N3CCN(C(=O)CCCCCSc4cccc5c4CN(C4CCC(=O)NC4=O)C5=O)CC3)CC2)ccc1Nc1ncc(Cl)c(Nc2ccccc2P(C)(C)=O)n1 (stereo not drawn) [SIAIS219071, 3-(4-((6-(4-(1-(4-((5-chloro-4-((2-(dimethylphosphoryl)phenyl)amino)pyrimidin-2-yl)amino)-3-methoxyphenyl)piperidin-4-yl)piperazin-1-yl)-6-oxohexyl)thio)-1-oxoisoindolin-2-yl)piperidine-2,6-dione] |  |  | 0.6 ± 0.4 | DC50 (nM)/ SR cell line [4]: 0.01~10 nM |
| Cc1sc2c(c1C)C(c1ccc(Cl)cc1)=N[C@@H](CC(=O)NCCCCNC(=O)CSc1cccc3c1CN(C1CCC(=O)NC1=O)C3=O)c1nnc(C)n1-2 (stereo partly drawn) [SIAIS213094, 2-((S)-4-(4-chlorophenyl)-2,3,9-trimethyl-6H-thieno[3,2-f][1,2,4]triazolo[4,3-a][1,4]diazepin-6-yl)-N-(4-(2-((2-(2,6-dioxopiperidin-3-yl)-1-oxoisoindolin-4-yl)thio)acetamido)butyl)acetamide] |  |  |  | IC50 [5]: 42.5 nM; IC50 [6]: 4.9 ± 0.8 nM |
| Cc1nc(Nc2ncc(C(=O)Nc3c(C)cccc3Cl)s2)cc(N2CCN(C(=O)CCCCCSc3cccc4c3C(=O)N(C3CCC(=O)NC3=O)C4=O)CC2)n1 (stereo not drawn) [SIAIS151155, N-(2-chloro-6-methylphenyl)-2-((6-(4-(6-((2-(2,6-dioxopiperidin-3-yl)-1,3-dioxoisoindolin-4-yl)thio)hexanoyl)piperazin-1-yl)-2-methylpyrimidin-4-yl)amino)thiazole-5-carboxamide] | 0.8 | 8.66 |  |  |
| COc1cc(N2CCC(N3CCN(C(=O)CCCSc4cccc5c4CN(C4CCC(=O)NC4=O)C5=O)CC3)CC2)ccc1Nc1ncc(Cl)c(Nc2ccccc2P(C)(C)=O)n1 (stereo not drawn) [SIAIS219069, 3-(4-((4-(4-(1-(4-((5-chloro-4-((2-(dimethylphosphoryl)phenyl)amino)pyrimidin-2-yl)amino)-3-methoxyphenyl)piperidin-4-yl)piperazin-1-yl)-4-oxobutyl)thio)-1-oxoisoindolin-2-yl)piperidine-2,6-dione] |  |  | 0.7 ± 0.3 | DC50 [4]: 0.1 to 10 nM |
| Cc1sc2c(c1C)C(c1ccc(Cl)cc1)=N[C@@H](CC(=O)NCCOCCOCCSc1cccc3c1CN(C1CCC(=O)NC1=O)C3=O)c1nnc(C)n1-2 (stereo partly drawn) [SIAIS213072, 2-((S)-4-(4-chlorophenyl)-2,3,9-trimethyl-6H-thieno[3,2-f][1,2,4]triazolo[4,3-a][1,4]diazepin-6-yl)-N-(2-(2-(2-((2-(2,6-dioxopiperidin-3-yl)-1-oxoisoindolin-4-yl)thio)ethoxy)ethoxy)ethyl)acetamide] |  |  |  | IC50 [5]: 3.03 nM; IC50 [6]: 0.5 ± 0.1 nM |
| Cc1nc(Nc2ncc(C(=O)Nc3c(C)cccc3Cl)s2)cc(N2CCN(C(=O)CCCSc3cccc4c3C(=O)N(C3CCC(=O)NC3=O)C4=O)CC2)n1 (stereo not drawn) [SIAIS151153, N-(2-chloro-6-methylphenyl)-2-((6-(4-(4-((2-(2,6-dioxopiperidin-3-yl)-1,3-dioxoisoindolin-4-yl)thio)butanoyl)piperazin-1-yl)-2-methylpyrimidin-4-yl)amino)thiazole-5-carboxamide] | 20.7 | 15 |  |  |
| COc1cc(N2CCC(N3CCN(C(=O)CCSc4cccc5c4CN(C4CCC(=O)NC4=O)C5=O)CC3)CC2)ccc1Nc1ncc(Cl)c(Nc2ccccc2P(C)(C)=O)n1 (stereo not drawn) [SIAIS219068, 3-(4-((3-(4-(1-(4-((5-chloro-4-((2-(dimethylphosphoryl)phenyl)amino)pyrimidin-2-yl)amino)-3-methoxyphenyl)piperidin-4-yl)piperazin-1-yl)-3-oxopropyl)thio)-1-oxoisoindolin-2-yl)piperidine-2,6-dione] |  |  | 1.7 ± 0.8 | DC50 [4]: 1 to 10 nM |
| Cc1nc(Nc2ncc(C(=O)Nc3c(C)cccc3Cl)s2)cc(N2CCN(CCSc3cccc4c3CN(C3CCC(=O)NC3=O)C4=O)CC2)n1 (stereo not drawn) [SIAIS171166, N-(2-chloro-6-methylphenyl)-2-((6-(4-(2-((2-(2,6-dioxopiperidin-3-yl)-1-oxoisoindolin-4-yl)thio)ethyl)piperazin-1-yl)-2-methylpyrimidin-4-yl)amino)thiazole-5-carboxamide] | < 1 | 0.51 |  |  |
| Cc1nc(Nc2ncc(C(=O)Nc3c(C)cccc3Cl)s2)cc(N2CCN(C(=O)CCCCCCSc3cccc4c3C(=O)N(C3CCC(=O)NC3=O)C4=O)CC2)n1 (stereo not drawn) [SIAIS151156, N-(2-chloro-6-methylphenyl)-2-((6-(4-(7-((2-(2,6-dioxopiperidin-3-yl)-1,3-dioxoisoindolin-4-yl)thio)heptanoyl)piperazin-1-yl)-2-methylpyrimidin-4-yl)amino)thiazole-5-carboxamide] | 2.9 | 6.63 |  |  |
| Cc1nc(Nc2ncc(C(=O)Nc3c(C)cccc3Cl)s2)cc(N2CCN(CCCSc3cccc4c3C(=O)N(C3CCC(=O)NC3=O)C4=O)CC2)n1 (stereo not drawn) [SIAIS172106, N-(2-chloro-6-methylphenyl)-2-((6-(4-(3-((2-(2,6-dioxopiperidin-3-yl)-1,3-dioxoisoindolin-4-yl)thio)propyl)piperazin-1-yl)-2-methylpyrimidin-4-yl)amino)thiazole-5-carboxamide] | < 3 | 0.83 |  |  |
| Cc1nc(Nc2ncc(C(=O)Nc3c(C)cccc3Cl)s2)cc(N2CCN(C(=O)CCCCSc3cccc4c3C(=O)N(C3CCC(=O)NC3=O)C4=O)CC2)n1 (stereo not drawn) [SIAIS151154, N-(2-chloro-6-methylphenyl)-2-((6-(4-(5-((2-(2,6-dioxopiperidin-3-yl)-1,3-dioxoisoindolin-4-yl)thio)pentanoyl)piperazin-1-yl)-2-methylpyrimidin-4-yl)amino)thiazole-5-carboxamide] | 2 | 5.74 |  |  |
